# Experimental data reported in ChEMBL document CHEMBL4387776, “Discovery of novel 9H-purin derivatives as dual inhibitors of HDAC1 and CDK2” (Bioorg Med Chem Lett, 2019).
# How the values were obtained:
# [1] = test system: HepG2; assay: Antiproliferative activity against human HepG2 cells measured after 72 hrs by CCK8 assay; format: functional, cell-based; settings: HepG2, 72 h
# [2] = test system: CAL-148; assay: Antiproliferative activity against human CAL148 cells measured after 72 hrs by CCK8 assay; format: functional, cell-based; settings: CAL-148, 72 h
# [3] = test system: A549; assay: Antiproliferative activity against human A549 cells measured after 72 hrs by CCK8 assay; format: functional, cell-based; settings: A549, 72 h
# [4] = biological target: CDK2/Cyclin A2 (Homo sapiens, UniProt P24941); assay: Inhibition of wild-type human N-terminal GST-tagged CDK2/cycA2 expressed in Sf21 insect cells using FAM-labelled substrate preincubated for 10 mins followed by substrate addition and measured after 30 mins by fluorescence assay
# [5] = biological target: Histone deacetylase 1 (Homo sapiens, UniProt Q13547); assay: Inhibition of recombinant human full-length C-terminal FLAG-tagged HDAC1 expressed in baculovirus expression system using Ac-peptide-AMC as substrate preincubated for 15 mins followed by substrate addition by fluorescence assay
# Histone deacetylase 1, sequence (Q13547 whole entry): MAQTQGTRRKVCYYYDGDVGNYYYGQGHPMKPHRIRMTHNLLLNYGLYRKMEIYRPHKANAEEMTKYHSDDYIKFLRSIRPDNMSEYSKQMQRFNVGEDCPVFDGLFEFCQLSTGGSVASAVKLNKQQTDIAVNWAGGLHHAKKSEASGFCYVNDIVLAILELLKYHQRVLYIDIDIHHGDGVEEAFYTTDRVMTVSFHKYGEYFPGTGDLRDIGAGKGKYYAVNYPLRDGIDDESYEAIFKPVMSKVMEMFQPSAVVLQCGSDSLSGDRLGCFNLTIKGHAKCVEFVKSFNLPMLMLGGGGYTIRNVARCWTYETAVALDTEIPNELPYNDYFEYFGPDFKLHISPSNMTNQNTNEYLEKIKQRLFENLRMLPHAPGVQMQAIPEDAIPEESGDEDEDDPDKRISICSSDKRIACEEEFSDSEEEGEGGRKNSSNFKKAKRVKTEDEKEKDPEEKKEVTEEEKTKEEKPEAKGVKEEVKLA
IC50 [1] [nM],IC50 [3] [nM],IC50 [4] [nM],IC50 [5] [nM],Compound,IC50 [2] [nM]
< 100,20,–,–,Cc1[nH]c2ccccc2c1CCNCc1ccc(/C=C/C(=O)NO)cc1 [PANOBINOSTAT],< 100
220,1260,127,7,CC(C)n1cnc2c(NCc3cccc(/C=C/C(=O)NO)c3)nc(N3CCOCC3)nc21,390
770,1490,56,5.8,CCn1cnc2c(NCc3cccc(/C=C/C(=O)NO)c3)nc(N3CCOCC3)nc21,1140

Compound,IC50 [1] [nM],IC50 [3] [nM],IC50 [4] [nM],IC50 [5] [nM],IC50 [2] [nM]
CC[C@H](CO)Nc1nc(NCc2ccccc2)c2ncn(C(C)C)c2n1 [SELICICLIB],15800,> 10000,–,–,> 10000
